The results in this text go back to patent US20100247517A1, “USE OF MNK INHIBITORS FOR THE TREATMENT OF ALZHEIMER'S DISEASE” (Boehringer Ingelheim Internationational GmbH, priority 2007, published 2010).

One assay has as its target T1, Human Mnk1-GST (Homo sapiens, UniProt Q9BUB5).
T1 construct: GST; made in house; host or cells: E. coli
As to the kind of experiment: In vitro phosphorylation of human Tau by Mnk1 (kinase reaction, immunoblotting). Format: biochemical. Here is the method:
(§1) Kinase reaction: The kinase reactions were carried out in a total volume of 30 μl in reaction buffer (20 mM HEPES/KOH pH 7.4, 10 mM MgCl2, 2 mM DTT, 0.1% Pluronic F127, 0.01% BSA) containing 500 μM ATP, 0.5 μM human recombinant Tau (USBiological, T1040-10), inhibitors and kinases as indicated in figures. Human Mnk1-GST and Mnk2-GST was expressed in E. coli and purifies by Äkta Explorer 100 (Amersham) and pre-activated by human recombinant Erk2 (DeveloGen). Aliquots were stored at −80° C. up to use. Recombinant human PKA (Calbiochem, 539482) was used as positive control. All components of reactions were pre-diluted in reaction buffer. […] Samples were analysed by Immunoblotting.
(§2) Immunoblotting: Laemmli sample buffer (Biorad) was added to the stopped kinase reactions, subjected to SDS-PAGE and electroblotted on a nitrocellulose membrane (Schleicher & Schüll). The transferred membrane was incubated with NET-G buffer (50 mM Tris/HCl pH 7.5, 5 mM EDTA, 150 mM NaCl, 0.05% Triton X-100, 0.25% (w/v) gelatine) containing 1/1000 (v/v) anti Tau (phospho S262) or anti Tau (phospho S356) antibodies (Abcam, ab4856 and ab4857) over night at 4° C. After washing with NET-G buffer the membrane was treated with NET-G buffer containing 1/5000 (v/v) HRP-conjugated anti rabbit IgG antibody (Pierce) for 2 hours at room temperature.
(§3) For loading control membrane was stripped with stripping buffer (200 mM glycine/HCl pH 2.2, 0.1% SDS, 0.1% Tween 20) for 3 hours at room temperature. The membrane was then treated with NET-G buffer containing 1/4000 (v/v) anti Tau antibody (Abcam, ab19326). After washing with NET-G buffer the membrane was incubated with NET-G buffer containing 1/5000 (v/v) HRP-conjugated anti goat IgG antibody (DakoCytomation). Signals were detected with chemiluminescence using ECL Super Signal West Dura kit (Pierce).
On the technique in general: In western blotting, separated proteins are transferred to a membrane and probed.

Another assay concerns the target T2, Human Mnk2-GST (Homo sapiens, UniProt Q9HBH9).
T2 construct: GST; made in house; host or cells: E. coli
As to the kind of experiment: In vitro phosphorylation of human Tau by Mnk2 (kinase reaction, immunoblotting). Format: biochemical. Here is the method: as §1, §2, §3

[1] abbreviates: results summary of FIG. 2 / FIG. 3.

T2 sequence (Q9HBH9 whole entry): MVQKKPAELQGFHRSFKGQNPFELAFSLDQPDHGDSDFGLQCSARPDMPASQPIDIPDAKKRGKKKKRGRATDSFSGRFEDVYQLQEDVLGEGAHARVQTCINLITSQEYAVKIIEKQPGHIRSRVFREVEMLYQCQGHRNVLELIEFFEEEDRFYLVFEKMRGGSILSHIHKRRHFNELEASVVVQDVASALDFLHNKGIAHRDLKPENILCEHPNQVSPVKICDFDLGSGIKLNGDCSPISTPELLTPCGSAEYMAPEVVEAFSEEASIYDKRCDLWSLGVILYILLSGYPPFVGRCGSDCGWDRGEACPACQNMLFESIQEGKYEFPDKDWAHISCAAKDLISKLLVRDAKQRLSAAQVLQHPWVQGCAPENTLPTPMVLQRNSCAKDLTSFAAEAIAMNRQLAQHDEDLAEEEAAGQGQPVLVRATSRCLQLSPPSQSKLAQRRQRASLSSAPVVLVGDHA
T1 sequence (Q9BUB5 whole entry): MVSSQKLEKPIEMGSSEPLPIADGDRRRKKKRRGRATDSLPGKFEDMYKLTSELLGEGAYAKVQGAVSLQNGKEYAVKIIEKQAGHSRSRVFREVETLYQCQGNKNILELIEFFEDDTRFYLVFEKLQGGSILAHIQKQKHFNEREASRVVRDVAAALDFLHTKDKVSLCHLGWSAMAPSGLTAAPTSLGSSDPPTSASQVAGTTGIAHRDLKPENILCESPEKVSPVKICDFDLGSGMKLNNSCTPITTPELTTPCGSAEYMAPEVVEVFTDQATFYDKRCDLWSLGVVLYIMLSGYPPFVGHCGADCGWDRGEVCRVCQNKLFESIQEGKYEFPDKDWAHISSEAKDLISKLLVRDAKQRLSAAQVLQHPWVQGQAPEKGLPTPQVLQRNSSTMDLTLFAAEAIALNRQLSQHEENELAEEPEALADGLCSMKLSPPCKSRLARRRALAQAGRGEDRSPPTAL

As to `CCOc1cc(C(N)=O)ccc1Nc1ncnc2scc(C)c12` [EDJ101401, 3-ethoxy-4-(5-methyl-thieno[2,3-D]pyrimidine-4-ylamino)-benzamide], on Human Mnk1-GST (0.5 μM human Tau, 500 μM ATP, 120 min at 37° C., Erk2 (5 nM) used to activate Mnk, Western blot, FIG. 2A), the “inhibition of in vitro phosphorylation of Ser262 in human Tau by Mnk1” value is recorded as “in a dose dependent manner”. For the same molecule, the “inhibition of in vitro phosphorylation of Ser356 in human Tau by Mnk1” value against Human Mnk1-GST (0.5 μM human Tau, 500 μM ATP, 120 min at 37° C., Erk2 (5 nM) used to activate Mnk, Western blot, FIG. 2B) is listed as “in a dose dependent manner”. Also, the “inhibition of Mnk1-dependent tau phosphorylation” value against Human Mnk1-GST (setting [1]) is reported as “dose-dependent inhibition”. In addition, on Human Mnk2-GST (0.5 μM human Tau, 500 μM ATP, 120 min at 37° C., Western blot, FIG. 2A / 3A), the “inhibition of in vitro phosphorylation of Ser262 in human Tau by Mnk2” value is recorded as “in a dose dependent manner”. The “inhibition of in vitro phosphorylation of Ser356 in human Tau by Mnk2” value against Human Mnk2-GST (0.5 μM human Tau, 500 μM ATP, 120 min at 37° C., Western blot, FIG. 2B / 3B) is on record as “in a dose dependent manner”. Further, at Human Mnk2-GST (setting [1]), the “inhibition of Mnk2-dependent tau phosphorylation” value is recorded as “dose-dependent inhibition”.
